EP2511272B1, “Synthetic analogues of abscisic acid with anti-inflammatory and insulin release stimulation effects on human cells” (Universita' degli Studi di Genova, priority 2011, dated 2012)

Columns and labels:
ABA receptor [1] = molecular target: T1, ABA receptor (Homo sapiens, UniProt Q9NS86); experiment: Competition binding with [^3H]-ABA on human granulocytes
T1 construct: endogenous in cells; host or cells: human granulocytes (intact cells)
T1 sequence (Q9NS86 1-450): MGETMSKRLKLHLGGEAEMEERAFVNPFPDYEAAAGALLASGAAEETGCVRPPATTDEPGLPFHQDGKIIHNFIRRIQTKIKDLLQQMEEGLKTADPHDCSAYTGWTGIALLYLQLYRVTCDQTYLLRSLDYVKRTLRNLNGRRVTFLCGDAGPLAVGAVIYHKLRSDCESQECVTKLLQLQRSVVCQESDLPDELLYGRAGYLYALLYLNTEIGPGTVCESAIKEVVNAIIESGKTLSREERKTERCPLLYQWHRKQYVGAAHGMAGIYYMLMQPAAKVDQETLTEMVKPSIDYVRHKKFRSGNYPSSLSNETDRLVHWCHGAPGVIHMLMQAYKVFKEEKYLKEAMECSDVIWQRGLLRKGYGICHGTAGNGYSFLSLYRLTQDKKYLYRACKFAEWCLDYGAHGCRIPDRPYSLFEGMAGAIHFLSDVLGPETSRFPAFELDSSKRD
Experimental: Human granulocytes (7 x 10^6 per point), after ON incubation in complete DMEM/F12, were incubated in triplicate at 25 °C for 60 min in 100 µl of HBSS spiked with glucose 10 mM in the presence either of an excess of unlabeled ABA (1 mM) (in order to determine the non-specific binding rate) or of increasing concentrations of compound prepared according to example 1 (from 0,01 nM up to 100 µM). To each compound, 10 nM of [^3H]-ABA (GE Healthcare) with specific activity of 98,000 cpm/pmole were added. At the end of incubation, the cells were centrifuged for 30 sec at […], the supernatant was removed and discarded, and the pellet was washed once wih an excess of HBSS in ice, and centrifuged for 30 sec at 17,000xg. The pellet was resuspended in 200 µl of de-ionized water and radioactivity of cells was determined after addition of scintillation cocktail in a β counter.
Specific binding was computed as the difference between the total binding of [^3H]-ABA in the cells and the binding of [^3H]-ABA in the presence of an excess of unlabeled ABA (1 mM) (non-specific binding).
The experiment was carried out five times in triplicate.

human monocytes = experiment: Inhibition of ABA-induced MCP-1 production in monocytes (ELISA); type: cell-based; details: 6 h
Experimental: Monocytes, 25 x 10^6/Petri in complete RPMI, were incubated for 6 h with 100 nM ABA either alone, or in the presence of compound prepared according to example 1, at a concentration of 1 µM. At the end of the incubation, the substrate was centrifuged at 17,000xg for 5 minutes and the release of MCP-1 (monocyte chemotactic protein-1) was quantitated by means of kit MC=-1 Elisa kit (GE Healthcare), in accordance with the instructions supplied by the manufacturer.
(§1) The cells were lysed in 200 µl of deionized water in order to quantitate total proteins by the Bradford method, after thre preliminary generation of a reference standard curve, obtained with different concentrations of bovine serum albumin. The spectrophotometric measurements were carried out at wavelength of 595 nm.
The experiment was carried out three times in sextuplicate.
The results were expressed as the average of the results from three independent experiments, as referred to control value. […] TABLE 8. Inhibition of MCP-1 production in human monocytes by compound prepared according to example 1

INS-1 cells = experiment: Insulin release (secretion index) by INS-1 cells, scr or LANCL-2 silenced; type: cell-based, rat; details: 30 minutes
Experimental: Insulinoma cells of INS-1 rat were transfected with LANCL-2 silencing RNAs LANCL-2 (siRNAL2) or with nonsense RNA (scr) and were incubated in 5 mM glucose (LG) oppure 25 mM glucose (HG), in the absence or in the presence of 100 nM ABA or of compound according to example 1 (100 nM). Insulin release is expressed as the secretion index (SI) relative to insulin release in LG. As regards the experimental procedure, with the exception of use of compound according to example 1, reference can be made to the following paper, in which the properties which are the subject-matter of the present example were investigated for only ABA. Sturla L, Fresia C, Guida L, Grozio A, Vigliarolo T, Mannino E, Millo E, Bagnasco L, Bruzzone S, De Flora A, Zocchi E. Binding of abscisic acid to human LANCL2. Biochem Biophys Res Commun. 2011 Nov 18;415(2):390-5. TABLE 12. Effect of ABA and of compound from example 1 on insulin release (SI) by […] at 30 minutes.

human granulocytes [2] = experiment: Cytotoxicity, CellTiter 96 AQueous One Solution assay; type: cell-based; details: 24 hrs
human granulocytes [3] = experiment: Inhibition of ABA-induced PGE2 production in granulocytes (EIA); type: cell-based; details: 6 h
Experimental: Granulocytes, in a number of 1x10^7 per point in RPMI supplemented with 10 % of foetal calf serum (FCS), penicillin (50 units/ml) and streptomycin (50 µg/ml) (complete RPMI), were incubated for 6 h with […] either alone or in the presence compound prepared according to example 1 at a concentration of 100 nM or of 1 µM. At the end of the incubation, the substrate was centrifuged at 17,000xg for 5 minutes and the concentration of PGE2 was quantitated by using the kit: PGE2 monoclonal EIA kit (Cayman Chemical Co.), following the instructions suppled by the manufacturer.
as §1, with “method (Bradford, M. M., 1976),” for “method,”
The experiment was carried out three times in triplicate TABLE 6). TABLE 6. Inhibition of PGE2 production, in human granulocytes stimulated with ABA, by compound prepared according to example 1

ABA receptor [4] = molecular target: T1, ABA receptor; details: value used in Cheng-Prusoff equation (Yamazaki e al., 2003); cited from earlier work
[5] = LANCL2 siRNA, HG (25 mM glucose), substance 100 nM
[6] = LANCL2 siRNA, LG (5 mM glucose), substance 100 nM
[7] = SCR, HG (25 mM glucose), substance 100 nM
[8] = SCR, LG (5 mM glucose), substance 100 nM

CC(=C/C(=O)O)/C=C/C1(O)C(C)(C)CC(=O)C2OC21C (stereo not drawn) [Example 1, 2'α,3'α-dihydro-2'α,3'α-epoxyabscisic acid]
Ki (ABA receptor [1]; Cheng-Prusoff, [ABA] =10 nM, KD ABA = 11 nM, 95% confidence intervals 0.25 nM to 0.83 nM, read-out: inhibition constant Ki): 0.46 nM
IC50 (ABA receptor [1]; displaces 50 % of radioligand specific binding, 95 % confidence intervals 0.48 nM to 1.58 nM): 0.87 nM
MCP-1 relatively to control ± SD (human monocytes; ABA 100 nM + compound 1 µM): 0.8±0.2
inhibition at 1 µM (human monocytes; Homo sapiens, Monocyte, ABA 100 nM + compound 1 µM): 100%
insulin release, secretion index (SI) relative to LG (INS-1 cells; [5]): 3
insulin release, secretion index (SI) relative to LG (INS-1 cells; LANCL2 siRNA, HG, ABA 100 nM + compound 100 nM together): 8
insulin release, secretion index (SI) relative to LG (INS-1 cells; [6]): 2
insulin release, secretion index (SI) relative to LG (INS-1 cells; LANCL2 siRNA, LG, ABA 100 nM + compound 100 nM together): 5
insulin release, secretion index (SI) relative to LG (INS-1 cells; [7]): 6
insulin release, secretion index (SI) relative to LG (INS-1 cells; SCR, HG, ABA 100 nM + compound 100 nM together): 12
insulin release, secretion index (SI) relative to LG (INS-1 cells; [8]): 2.5
insulin release, secretion index (SI) relative to LG (INS-1 cells; SCR, LG, ABA 100 nM + compound 100 nM together): 8.5
number of cells (human granulocytes [2]; 1 nM): 151138
vitality % (human granulocytes [2]; 1 nM): 89%
number of cells (human granulocytes [2]; 10 nM): 191138
vitality % (human granulocytes [2]; 10 nM): 100%
number of cells (human granulocytes [2]; 1 µM): 132555
vitality % (human granulocytes [2]; 1 µM): 83%
number of cells (human granulocytes [2]; 100 µM): 175388
vitality % (human granulocytes [2]; 100 µM): 96%
inhibition at 0.1 µM (human granulocytes [3]; ABA 100 nM + compound 100 nM): 85%
inhibition at 1 µM (human granulocytes [3]; ABA 100 nM + compound 1 µM): 100%

CC1=CC(=O)CC(C)(C)C1(O)/C=C/C(C)=C\C(=O)O (racemic) [ABA, (2Z,4E)-5-(1-hydroxy-2,6,6-trimethyl-4-oxo-2-cyclohexen-1-yl)-3-methyl-2,4-pentadienoic acid, reference compound]
MCP-1 relatively to control ± SD (human monocytes; ABA 100 nM alone): 2±0.2
Kd (ABA receptor [4]): 11 nM
insulin release, secretion index (SI) relative to LG (INS-1 cells; [5]): 1.7
insulin release, secretion index (SI) relative to LG (INS-1 cells; [6]): 1
insulin release, secretion index (SI) relative to LG (INS-1 cells; [7]): 6.4
insulin release, secretion index (SI) relative to LG (INS-1 cells; [8]): 1.7
